The results in this text go back to US7897765B2, “Therapeutic compounds and uses thereof” (Elixir Pharmaceuticals, Inc., priority 2003, dated 2011).

Sequence of GHS-R (Q92847 whole entry, species assumed): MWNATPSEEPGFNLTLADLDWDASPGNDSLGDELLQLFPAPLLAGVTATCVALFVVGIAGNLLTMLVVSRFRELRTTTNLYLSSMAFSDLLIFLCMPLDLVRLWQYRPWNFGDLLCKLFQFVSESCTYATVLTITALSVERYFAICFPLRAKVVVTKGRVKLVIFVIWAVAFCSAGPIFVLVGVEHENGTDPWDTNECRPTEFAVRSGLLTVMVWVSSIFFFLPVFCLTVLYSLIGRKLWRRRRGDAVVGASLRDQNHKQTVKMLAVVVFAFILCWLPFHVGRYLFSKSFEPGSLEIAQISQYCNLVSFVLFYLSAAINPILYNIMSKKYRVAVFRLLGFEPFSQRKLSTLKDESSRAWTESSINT

In this test the target is GHS-R (Homo sapiens, UniProt Q92847). The experiment in a line: cell based assay of GHS-R antagonist/agonist activity. Set-up: key: A refers to a compound having antagonist activity with Ki<100 nM in a cell based assay; B refers to a compound having agonist activity with EC50<100 nM in a cell based assay; C refers to a compound having antagonist activity of Ki>100 nM and <1500 nM in a cell based assay; D refers to a compound having antagonist activity with Ki, <100 nM and agonist activity with EC50<100 nM in a cell-based assay; E refers to other exemplary compounds. The following applies: GHS-R antagonist Ki and/or agonist EC50 class. How it is done:
Cell-Based Activity Assays. For example, the ability of the compound to modulate accumulation of a second messenger signaling component downstream of GHS-R can be evaluated. For example, inositol phosphates (IP), as a result of Gq signaling in a mammalian cell, e.g., a Cos-7 cells. Other tissue culture cells, Xenopus oocytes, and primary cells can also be used.
Phosphatidylinositol turnover assay. One day after transfection COS-7 cells are incubated for 24 hours with 5 μCi of [^3H]-myo-inositol in 1 ml medium supplemented with 10% fetal calf serum, 2 mM glutamine and 0.01 mg/ml gentamicin per well. Cells are then washed twice in buffer, 20 mM HEPES, pH 7.4, supplemented with 140 mM NaCl, 5 mM KCl, 1 mM MgSO4, 1 mM CaCl2, mM glucose, 0.05% (w/v) bovine serum; and incubated in 0.5 ml buffer supplemented with 10 mM LiCl at 37° C. for 30 min. For some assays, it is also useful to incubate the cells with adenosine deaminase ADA (200 U/mg, Boehringer Mannheim, Germany) for 30 min in a concentration of 1 U/ml.
After incubation with the compound of interest for 45 min at 37° C., cells are extracted with 10% ice-cold perchloric acid and placed on ice for 30 min. The resulting supernatants are neutralized with KOH in HEPES buffer, and [^3H]-inositol phosphate is purified on Bio-Rad AG 1-X8 anion exchange resin as described. Assays can be run in duplicate, triplicate, etc.
Other second messenger assays. Another second messenger that can be evaluated is Ca^2+. Ca^2+ mobilization can be evaluated using a calcium sensitive detector, such as aequorin protein or a dye, e.g., FURA-2. In an exemplary assay, calcium mobilization is evaluated in a recombinant cell that expresses GHS-R and aequorin.
Gene expression assay. HEK293 cells (30 000 cells/well) seeded in 96-well plates are transiently transfected with a mixture of pFA2-CREB and pFR-Luc reporter plasmid (PathDetect™ CREB trans-Reporting System, Stratagene) and nucleic acid encoding GHS. One day after transfection, cells are treated with the compound of interest in an assay volume of 100 μl medium for 5 hrs. After treatment, cells are cultured in low serum (2.5%). After the incubation period, the assay is ended by washing the cells twice with PBS and adding 100 μl luciferase assay reagent (LucLite™, Packard Bioscience). Luminescence is measured (e.g., as relative light units (RLU)) using in a luminometer such as the TopCounter™ (Packard Bioscience) for 5 sec.
IC50 and EC50 values can be determined by nonlinear regression, e.g., using the Prism 3.0 software (GraphPad Software, San Diego).
Take `CC(C)(C)OC(=O)NC(C)(C)C(=O)N[C@H](COCc1ccccc1)C(=O)N1CCC2(CC1)CN(S(C)(=O)=O)c1ccccc12` [Compound 50]: the Activity result is recorded as “E”.
For `CC(=O)N[C@H](COCc1ccccc1)C(=O)N1CCC2(CC1)CN(S(C)(=O)=O)c1ccccc12` [Compound 51], the Activity entry is “E”.
For the compound `CC(C)(C)CC(=O)N[C@H](COCc1ccccc1)C(=O)N1CCC2(CC1)CN(S(C)(=O)=O)c1ccccc12` [Compound 52], the Activity entry was “E”.
Consider `CS(=O)(=O)N1CC2(CCN(C(=O)[C@@H](COCc3ccccc3)NC(=O)c3ccccn3)CC2)c2ccccc21` [Compound 53], for which the Activity result was “E”.
Consider `CS(=O)(=O)N1CC2(CCN(C(=O)[C@@H](COCc3ccccc3)NC(=O)CO)CC2)c2ccccc21` [Compound 54], for which the Activity result is “E”.
Consider `CS(=O)(=O)N1CC2(CCN(C(=O)[C@@H](COCc3ccccc3)NC(=O)Cn3ccnc3)CC2)c2ccccc21` [Compound 55], for which the Activity result is recorded as “E”.
For the compound `CC(C)(C)OC(=O)N[C@H](COCc1ccccc1)C(=O)N1CCC2(CC1)CNc1ccccc12` [Compound 56], the Activity result is reported as “E”.
As for `COCC(=O)N1CC2(CCN(C(=O)[C@@H](COCc3ccccc3)NC(=O)OC(C)(C)C)CC2)c2ccccc21` [Compound 57], the entry is “E”; as for `COc1cccc(C(=O)N2CC3(CCN(C(=O)[C@@H](COCc4ccccc4)NC(=O)OC(C)(C)C)CC3)c3ccccc32)c1` [Compound 58], “E”; as for `CC(=O)OCC(=O)N1CC2(CCN(C(=O)[C@@H](COCc3ccccc3)NC(=O)OC(C)(C)C)CC2)c2ccccc21` [Compound 59], “E”.
Turning to `COC(=O)CC(=O)N1CC2(CCN(C(=O)[C@@H](COCc3ccccc3)NC(=O)OC(C)(C)C)CC2)c2ccccc21` [Compound 60], the Activity result is “E”.
The result for `CC(C)(C)OC(=O)N[C@H](COCc1ccccc1)C(=O)N1CCC2(CC1)CN(C(=O)CO)c1ccccc12` [Compound 61] reads “E”; that for `CC(C)(C)OC(=O)N[C@H](COCc1ccccc1)C(=O)N1CCC2(CC1)CN(C(=O)CC(=O)O)c1ccccc12` [Compound 62], “E”.
`CN(C)CC(=O)N1CC2(CCN(C(=O)[C@@H](COCc3ccccc3)NC(=O)OC(C)(C)C)CC2)c2ccccc21` [Compound 63]: the Activity entry is reported as “E”.
Regarding `CC(C)(C)OC(=O)N[C@H](COCc1ccccc1)C(=O)N1CCC2(CC1)CN(S(=O)(=O)CC(F)(F)F)c1ccccc12` [Compound 64], the Activity result is reported as “E”.
For the compound `COc1cccc(NC(=O)N2CC3(CCN(C(=O)[C@@H](COCc4ccccc4)NC(=O)OC(C)(C)C)CC3)c3ccccc32)c1` [Compound 65], the Activity entry is “E”.
For the compound `CC(C)(C)OC(=O)N[C@H](COCc1ccccc1)C(=O)N1CCC2(CC1)CN(C(=O)Cn1ccnc1)c1ccccc12` [Compound 66], the Activity entry was “E”.
The result for `CC(C)(C)OC(=O)N[C@H](COCc1ccccc1)C(=O)N1CCC2(CC1)CN(S(=O)(=O)Cc1ccccc1)c1ccccc12` [Compound 67] reads “E”; that for `CN(C)CC(=O)N[C@H](COCc1ccccc1)C(=O)N1CCC2(CC1)CNc1ccccc12` [Compound 68], “E”; that for `COc1cccc(NC(=O)N2CC3(CCN(C(=O)[C@@H](COCc4ccccc4)NC(=O)CN(C)C)CC3)c3ccccc32)c1` [Compound 69], “E”.
As to `CNCC(=O)N[C@H](COCc1ccccc1)C(=O)N1CCC2(CC1)CN(S(C)(=O)=O)c1ccccc12` [Compound 70], the Activity entry is “E”.
As to `CC(=O)OCC(=O)N1CC2(CCN(C(=O)[C@@H](COCc3ccccc3)NC(=O)CN(C)C)CC2)c2ccccc21` [Compound 71], the Activity entry is “E”.
As for `COC(=O)CC(=O)N1CC2(CCN(C(=O)[C@@H](COCc3ccccc3)NC(=O)CN(C)C)CC2)c2ccccc21` [Compound 72], the entry is “E”; as for `COCC(=O)N1CC2(CCN(C(=O)[C@@H](COCc3ccccc3)NC(=O)CN(C)C)CC2)c2ccccc21` [Compound 73], “E”.
As for `COc1cccc(C(=O)N2CC3(CCN(C(=O)[C@@H](COCc4ccccc4)NC(=O)CN(C)C)CC3)c3ccccc32)c1` [Compound 74], the entry is “E”.
Take `CN(C)CC(=O)N[C@H](COCc1ccccc1)C(=O)N1CCC2(CC1)CN(C(=O)CO)c1ccccc12` [Compound 75]: the Activity result was “E”.
With `C[C@H](N)C(=O)N[C@H](COCc1ccccc1)C(=O)N1CCC2(CC1)CN(S(C)(=O)=O)c1ccccc12` [Compound 78], the Activity entry is listed as “E”.
Consider `C[C@@H](N)C(=O)N[C@H](COCc1ccccc1)C(=O)N1CCC2(CC1)CN(S(C)(=O)=O)c1ccccc12` [Compound 79], for which the Activity result is listed as “E”.
Turning to `CS(=O)(=O)N1CC2(CCN(C(=O)[C@@H](COCc3ccccc3)NC(=O)C3=NCCN3)CC2)c2ccccc21` [Compound 80], the Activity result is “E”.
For the compound `C[C@@H](C(=O)N[C@H](COCc1ccccc1)C(=O)N1CCC2(CC1)CN(S(C)(=O)=O)c1ccccc12)N(C)C` [Compound 81], the Activity result was “E”.
As for `CN(C)CCS(=O)(=O)N[C@H](COCc1ccccc1)C(=O)N1CCC2(CC1)CN(S(C)(=O)=O)c1ccccc12` [Compound 83], the entry is “E”.
Turning to `CN1CCC(N[C@H](COCc2ccccc2)C(=O)N2CCC3(CC2)CN(S(C)(=O)=O)c2ccccc23)CC1` [Compound 84], the Activity entry is recorded as “E”.
The result for `CC(C)(C)NC(=S)N[C@H](COCc1ccccc1)C(=O)N1CCC2(CC1)CN(S(C)(=O)=O)c1ccccc12` [Compound 85] reads “E”; that for `CS(=O)(=O)N1CC2(CCN(C(=O)[C@@H](COCc3ccccc3)NC(=S)Nc3cccnc3)CC2)c2ccccc21` [Compound 86], “E”; that for `CS(=O)(=O)N1CC2(CCN(C(=O)[C@@H](COCc3ccccc3)NC(=S)NCc3ccco3)CC2)c2ccccc21` [Compound 87], “E”.
In the case of `CC(=O)N(C1CCN(C)CC1)[C@H](COCc1ccccc1)C(=O)N1CCC2(CC1)CN(S(C)(=O)=O)c1ccccc12` [Compound 88], the Activity entry is “E”.
The result for `CN(C)CCC(=O)N[C@H](COCc1ccccc1)C(=O)N1CCC2(CC1)CN(S(C)(=O)=O)c1ccccc12` [Compound 89] reads “E”; that for `CCN(CC)CC(=O)N[C@H](COCc1ccccc1)C(=O)N1CCC2(CC1)CN(S(C)(=O)=O)c1ccccc12` [Compound 90], “E”.
For the compound `CN1CCN(CC(=O)N[C@H](COCc2ccccc2)C(=O)N2CCC3(CC2)CN(S(C)(=O)=O)c2ccccc23)CC1` [Compound 91], the Activity entry was “E”.
Turning to `CS(=O)(=O)N1CC2(CCN(C(=O)[C@@H](COCc3ccccc3)NC(=O)NCCN3CCOCC3)CC2)c2ccccc21` [Compound 92], the Activity entry is “E”.
Turning to `CN1CCN(C(=O)N[C@H](COCc2ccccc2)C(=O)N2CCC3(CC2)CN(S(C)(=O)=O)c2ccccc23)CC1` [Compound 93], the Activity entry is reported as “E”.
The result for `CN(C)CCNC(=O)N[C@H](COCc1ccccc1)C(=O)N1CCC2(CC1)CN(S(C)(=O)=O)c1ccccc12` [Compound 94] reads “E”; that for `CS(=O)(=O)N1CC2(CCN(C(=O)[C@@H](COCc3ccccc3)NC(=O)NCCCO)CC2)c2ccccc21` [Compound 95], “E”.
